The source made the active and inactive calls. How the calls were made is not given here.
Target: Influenza A virus M2 proton channel (A/TW/4845/1999 H1N1)
Experiment: NMR binding screen, influenza A virus M2 proton channel, Kd (AID 1549)
Conditions: M2 protein

SMILES	Kd
O=c1ccc2cc(O[C@@H]3O[C@H](CO)[C@@H](O)[C@H](O)[C@H]3O)c(O)cc2o1	> 4 mM (inactive)
COc1ccc(-c2coc3c(OC)c(OC)cc(OC)c3c2=O)cc1	> 4 mM (inactive)
COc1cc(/C=C/C(=O)O)cc(OC)c1OC	> 4 mM (inactive)
Cc1ncoc1C(=O)Nc1ncc([N+](=O)[O-])s1	> 4 mM (inactive)
CN1CCN(c2cc(=O)n(C)c(=O)[nH]2)CC1	> 4 mM (inactive)
O=C1c2ccccc2C(=O)N1Cc1ccco1	> 4 mM (inactive)
Cc1c(C)n2c(SCC(N)=O)nnc2[nH]c1=O	> 4 mM (inactive)
Fc1ccc(-c2n[nH]c(=S)n2CC2CCCO2)cc1 (stereo not given)	> 4 mM (inactive)
CCOC(=O)Cc1nc2ccccc2[nH]1	> 4 mM (inactive)
NC(=O)c1ccc(-c2ccccn2)s1	> 4 mM (inactive)
O=C(Nc1ccccc1)C(=O)NC1CC1	> 4 mM (inactive)
Cc1nc2nc(COc3ccccc3)nn2c(C)c1Cl	> 4 mM (inactive)
Cc1nnsc1C(=O)Nc1cccc(S(N)(=O)=O)c1	> 4 mM (inactive)
Nc1ncnc2nc[nH]c12	> 4 mM (inactive)
NC(=O)C1CCN(C(=O)c2ccco2)CC1	> 4 mM (inactive)
CCCCCc1c2c(cc(O)c1C(=O)O)OC(=O)c1c(cc(OC)cc1C(=O)CCCC)O2	> 4 mM (inactive)
O=C(Nc1ccon1)c1ccc(Cl)s1	> 4 mM (inactive)
S=c1oc(-c2ccncc2)nn1CCc1ccncc1	> 4 mM (inactive)
O=S1(=O)CCC(NC(=S)N2CCOCC2)C1 (stereo not given)	> 4 mM (inactive)
O/N=C1/CCCc2nonc21	> 4 mM (inactive)
Cc1occc1C(=O)Nc1nnc(-c2ccncc2)s1	> 4 mM (inactive)
CC(=O)NC(=S)Nc1ccc(C(C)=O)cc1	> 4 mM (inactive)
NS(=O)(=O)c1ccc(N=C2NC(=O)CS2)cc1	> 4 mM (inactive)
CC(=O)c1ccc(-n2ccnc2)cc1	> 4 mM (inactive)

SMILES	Kd
Cc1cc(=O)n(C(N)=S)[nH]1	> 4 mM (inactive)
O=C1C2C3C=CC(C3)C2C(=O)N1c1cccnc1 (stereo not given)	> 4 mM (inactive)
CC1SC(=NC(=O)c2ccco2)NC1=O (stereo not given)	> 4 mM (inactive)
C[C@H]1[C@H]2CCC3C4CC=C5C[C@@H](N(C)C)CC[C@]5(C)C4CC[C@@]32CN1C (stereo not given in full)	> 4 mM (inactive)
O=C1CSC(=O)N1c1cccc(O)c1	> 4 mM (inactive)
COc1ccc(-c2coc3cc(OC)cc(OC)c3c2=O)cc1	> 4 mM (inactive)
Cc1cccn2cc(CNc3ccccc3)nc12	> 4 mM (inactive)
Cc1cc(=O)c2ccccc2n1CC(N)=O	> 4 mM (inactive)
NCC1CN(Cc2ccccc2)CCO1 (stereo not given)	> 4 mM (inactive)
Cc1nc(NC2=NCCC(=O)N2)nc2ccccc12	> 4 mM (inactive)
Clc1ccccc1-c1nc(-c2cccnc2)no1	> 4 mM (inactive)
O=C(O)C1CN(Cc2ccccc2)CCO1 (stereo not given)	> 4 mM (inactive)
CC1(C)C2CC(=O)[C@]3(C)C(CC[C@@]4(C)[C@H](c5ccoc5)OC(=O)C5OC543)[C@@]2(C)[C@@H](O)C[C@H]1O (stereo not given in full)	> 4 mM (inactive)
CC(C)NS(=O)(=O)c1ccc(N)cc1	> 4 mM (inactive)
CCc1c(C(=O)Nc2ccncc2)csc1C	> 4 mM (inactive)
Cc1cc(C)nc(NC(N)=NCc2ccco2)n1	> 4 mM (inactive)
Cc1nc2nc(Cc3ccccc3)nn2c(C)c1Cl	> 4 mM (inactive)
CC(=O)c1cc2c(s1)SCC(=O)N2	> 4 mM (inactive)
Cc1cccc(-n2c(N)cc(=O)[nH]c2=S)c1C	> 4 mM (inactive)
CN(C)N1C(=O)c2ccccc2C1=O	> 4 mM (inactive)
O=C(Nc1ccc(-c2nnco2)cc1)c1ccccc1	> 4 mM (inactive)
Nn1cnn2c(SCc3ccccc3)nnc12	> 4 mM (inactive)
O=C1NCCCC1C(=O)N/N=C/c1ccccc1 (stereo not given)	> 4 mM (inactive)
Oc1ccccc1N1CCCC1	> 4 mM (inactive)

SMILES	Kd
O=C(O)CCc1c[nH]c2ccccc12	> 4 mM (inactive)
C[N+](C)(C)CC(O)CC(=O)O (stereo not given)	> 4 mM (inactive)
Oc1ccccc1-c1cc(C(F)(F)F)[nH]n1	> 4 mM (inactive)
CC(CCC(=O)O)[C@H]1CCC2C3CC[C@@H]4C[C@H](O)CC[C@]4(C)C3C[C@H](O)[C@@]21C (stereo not given in full)	> 4 mM (inactive)
O=C(Nc1nccs1)c1cccnc1	> 4 mM (inactive)
O=c1cc(CO)oc(CN2CCCCC2)c1O	> 4 mM (inactive)
CN1C(=O)CC(=O)N(C)c2ccccc21	> 4 mM (inactive)
OC[C@H]1O[C@@H](O[C@H]2[C@H](O)[C@@H](O)[C@@H](O)O[C@@H]2CO)[C@H](O)[C@@H](O)[C@@H]1O	> 4 mM (inactive)
O=C(O)c1ccc(N2CCCCC2)cc1	> 4 mM (inactive)
O=C(O)c1csc2ccccc12	> 4 mM (inactive)
O=C1OCCC1Sc1nc2ccccc2c(=O)[nH]1 (stereo not given)	> 4 mM (inactive)
Oc1ccc2nonc2c1	> 4 mM (inactive)
CC(C)C1COc2cc3oc(=O)ccc3cc2O1 (stereo not given)	> 4 mM (inactive)
CC(C)=CCOc1c2occc2cc2ccc(=O)oc12	> 4 mM (inactive)
COc1ccc(-c2cc(=O)c3ccccc3o2)cc1OC	> 4 mM (inactive)
Cc1nnc(SCC(N)=O)c2ccccc12	> 4 mM (inactive)
O=C1CSC2(CN3CCC2CC3)N1 (stereo not given)	> 4 mM (inactive)
N[C@@H](Cc1cc(I)c(Oc2cc(I)c(O)c(I)c2)c(I)c1)C(=O)O	> 4 mM (inactive)
NCc1ccc(CN2CCOCC2)cc1	> 4 mM (inactive)
COC(=O)c1oc2ccc(Cl)cc2c1NC(C)=O	> 4 mM (inactive)
CNC(=O)c1cc(S(=O)(=O)N(C)C)ccc1Cl	> 4 mM (inactive)
Cc1ccc(-n2ncc(C#N)c2/N=C/N(C)C)cc1	> 4 mM (inactive)
Nc1nnc(C(F)(F)F)s1	> 4 mM (inactive)
CC1(C)CC(=O)c2sc(N)nc2C1	> 4 mM (inactive)

SMILES	Kd
O=C1N=C(N2CCOCC2)S/C1=C\c1cccnc1	> 4 mM (inactive)
Nc1ncnc2c1ncn2CCN1CCCCC1	> 4 mM (inactive)
COc1ccc2c(c1OC)OC[C@@H](c1ccc(OC)c(OC)c1OC)C2	> 4 mM (inactive)
CC(=O)NC(O)C(=O)c1cccs1 (stereo not given)	> 4 mM (inactive)
N=Nc1c(O)[nH]c2ccccc12	> 4 mM (inactive)
Cc1oc2nc3c(c(=O)[nH]c(=O)n3C)n2c1C	> 4 mM (inactive)
COc1ccc2c(c1)C(NC(C)=O)C(=O)N2C (stereo not given)	> 4 mM (inactive)
CC(C)NC(=O)c1nc2ccccc2s1	> 4 mM (inactive)
Nc1ccccc1C(=O)CC(N)C(=O)O (stereo not given)	> 4 mM (inactive)
Cn1ncc(C(=O)NC2CCCCC2)c1Cl	> 4 mM (inactive)
OC1COCc2nc3ccccc3n2C1 (stereo not given)	> 4 mM (inactive)
Nc1ncccc1OCc1ccccc1	> 4 mM (inactive)
Cc1cccc(NC(=O)c2ccc(=O)[nH]n2)c1	> 4 mM (inactive)
C=C1C2CC[C@@]3(C)[C@H](c4ccoc4)OC(=O)C[C@]13O[C@H]1C[C@H](OC(C)=O)C(C)(C)[C@H](CC(=O)OC)[C@@]21C	> 4 mM (inactive)
CCC(CCC(C)[C@H]1CCC2C3CC=C4C[C@@H](O)CC[C@]4(C)C3CC[C@@]21C)C(C)C (stereo not given in full)	> 4 mM (inactive)
OC(c1ccccc1)c1ccccn1 (stereo not given)	> 4 mM (inactive)
COc1ccc([C@H]2Oc3c(I)c(OC)cc(OC)c3C[C@@H]2O)cc1OC	> 4 mM (inactive)
Cc1n[nH]c(C)c1CN	> 4 mM (inactive)
COc1ccc(C(N)=O)cc1N	> 4 mM (inactive)
COC(=O)[C@]1(C)CCC[C@]2(C)c3ccc(C(C)C)cc3C(=O)CC12 (stereo not given in full)	> 4 mM (inactive)
CC(=O)O[C@@H]1CC2C(C)(C)[C@H](O)C=C[C@]2(C)C2CC[C@]3(C)C(=CC(=O)O[C@H]3c3ccoc3)[C@@]21C (stereo not given in full)	> 4 mM (inactive)
CC(CC(=O)NN)C1(O)CCCCC1 (stereo not given)	> 4 mM (inactive)
N[C@@H](CCC(=O)N[C@@H](CS)C(=O)NCC(=O)O)C(=O)O	> 4 mM (inactive)
CCNS(=O)(=O)c1ccc(OC)c(C)c1	> 4 mM (inactive)

SMILES	Kd
OC[C@@H]1CCCN2CCCC[C@H]12	> 4 mM (inactive)
O=C(O)CCCCCCCC(=O)O	> 4 mM (inactive)
Nc1cccc2nonc12	> 4 mM (inactive)
NC(=O)CSc1nc2ccccc2o1	> 4 mM (inactive)
CC(=O)N1CN(C(C)=O)CN(C(C)=O)C1	> 4 mM (inactive)
CCC1C(=O)OCC1Cc1cncn1C (stereo not given)	> 4 mM (inactive)
O=C(O)c1ccc(CN2CCOCC2)cc1	> 4 mM (inactive)
COC(=O)C1=CO[C@@H](O[C@@H]2O[C@H](CO)[C@@H](O)[C@H](O)[C@H]2O)[C@@H]2[C@@H](C)[C@@H](O)C[C@H]12	> 4 mM (inactive)
O=C1NC(=S)N/C1=C/c1ccc(O)c(Cl)c1	> 4 mM (inactive)
O=C(c1ccco1)N1CCn2c1nc1ccccc12	> 4 mM (inactive)
OCCNc1ccccn1	> 4 mM (inactive)
Cc1ccc(=O)[nH]c1	> 4 mM (inactive)
COc1ccc(-c2cn[nH]c2N)c(OC)c1	> 4 mM (inactive)
Cc1ccc(CN2CCN(C(=O)C3CCC3)CC2)cc1	> 4 mM (inactive)
CC(=O)OC[C@@]1(O)C[C@@]23CCC4c5ccoc5CC[C@]4(C)C2CC[C@@H]1C3 (stereo not given in full)	> 4 mM (inactive)
Cc1cc(C)nc(/N=C(/N)Nc2cccc(F)c2)n1	> 4 mM (inactive)
Cc1n[nH]c(C)c1CC(=O)O	> 4 mM (inactive)
CC(=O)c1cccc(NS(=O)(=O)N2CCCCC2)c1	> 4 mM (inactive)
O=C1NC(=O)/C(=C/c2ccc(O)cc2)N1	> 4 mM (inactive)
Cc1cc(O)cc(=O)n1CCCC(=O)O	> 4 mM (inactive)
CCSc1nnc2[nH]c(=O)cc(C)n12	> 4 mM (inactive)
O=C(NCc1cccnc1)c1ccccn1	> 4 mM (inactive)
Cn1ncc(SCc2ccco2)c(Cl)c1=O	> 4 mM (inactive)
N=C1/C(=C\c2ccccc2)C(=O)N=C2SC=NN12	> 4 mM (inactive)

Reference: PubChem BioAssay AID1549 (Sanford-Burnham Center for Chemical Genomics, 2009)
